Assay results from patent publication US11707464B2, “Methods of treating heavy menstrual bleeding” (AbbVie Inc., priority 2013, dated 2023).

Columns and labels:
Type in all cases: in vivo, human
[1] = system: women with endometriosis; test: Phase 2 endometriosis studies: safety and tolerability
Description: The safety and tolerability of elagolix in women with endometriosis has been evaluated in 6 completed Phase 2 studies including 708 women who received at least 1 dose of elagolix. Overall, 475 women have received elagolix for at least 12 weeks and 278 women for a period of at least 24 weeks. The majority of women were Caucasian (78.9% to 100%), while approximately 7% were black and approximately 4.5% were Hispanic. The mean age across these six Phase 2 studies was 31 to 33 years (range 18 to 48 years) and mean body mass index (BMI) of 23 to 28 kg/m. Overall, 40% to 70% of women had received prior therapy for the treatment of endometriosis, and hormonal contraceptives were the most common class of drug prescribed for the condition. In addition, the majority were receiving analgesic medications (nonsteroidal anti-inflammatory drugs, opioids, and/or other) prior to study enrollment.
None of these events were serious and they contributed to less than 1% of study discontinuations.

[2] = system: women; test: Suppression of pituitary and ovarian hormones in women
Description: The term “Elagolix” refers to 4-((R)-2-[5-(2-fluoro-3-methoxy-phenyl)-3-(2-fluoro-6-trifluoromethyl-benzyl)-4-methyl-2,6-dioxo-3,6-dihydro-2H-pyrimidin-1-yl]-1-phenyl-ethylamino)-butyric acid or a pharmaceutically acceptable salt thereof. Elagolix is an orally active, non-peptide GnRH antagonist and is unlike other GnRH agonists and injectable (peptide) GnRH antagonists. […] Methods of making Elagolix and a pharmaceutically acceptable salt thereof are described in WO 2005/007165, the contents of which are herein incorporated by reference.

[3] = system: premenopausal women with endometriosis; test: Phase 2 endometriosis studies: endometriosis-associated pain efficacy
Protocol: Six Phase 2 randomized, double-blind, placebo-, and/or active-controlled, parallel-group, multiple dose studies were completed to evaluate elagolix as a treatment for endometriosis associated pain. Efficacy was assessed for dysmenorrhea (DYS), nonmenstrual pelvic pain (NMPP), dyspareunia, and general pelvic pain with a range of instruments.
Additional efficacy assessments included quality of life and the use of analgesics for control of endometriosis pain.
Across these Phase 2 studies, the enrollment criteria were similar and were intended to select premenopausal women aged 18 to 49 years of age with endometriosis confirmed by visual inspection (laparoscopy or laparotomy within 5 to 8 years of screening) who experienced moderate to severe endometriosis-associated pain. Women were included if they had regular menstrual cycles and no significant uterine fibroids or pelvic lesions.
Total daily doses of elagolix ranging from 75 to 250 mg were evaluated across a range of pain instruments measuring DYS, NMPP, or general pelvic pain (including patient global impression of change), during 12 or 24 weeks of treatment.

[4] = system: premenopausal women with endometriosis; test: Phase 2 endometriosis studies: uterine bleeding by daily eDiary; settings: for days of bleeding per month: eDiary
Protocol: The effects of elagolix on uterine bleeding were evaluated in the Phase 2 endometriosis program, with an analysis of the percentage of days of bleeding per month according to daily reporting of bleeding in an electronic diary (eDiary).

Compound: COc1cccc(-c2c(C)n(Cc3c(F)cccc3C(F)(F)F)c(=O)n(C[C@H](NCCCC(=O)O)c3ccccc3)c2=O)c1F [Elagolix, 4-((R)-2-[5-(2-fluoro-3-methoxy-phenyl)-3-(2-fluoro-6-trifluoromethyl-benzyl)-4-methyl-2,6-dioxo-3,6-dihydro-2H-pyrimidin-1-yl]-1-phenyl-ethylamino)-butyric acid]
- most common adverse events ([1]; 12-week and 24-week analysis sets, incidence similar to DMPA-SC in 24-week analysis): headache and nausea
- safety and tolerability ([1]; all daily doses (100 to 250 mg) evaluated): safe and well tolerated
- incidence of AEs that led to discontinuations ([1]; completed Phase 2 endometriosis studies): 4.8%
- study discontinuations contributed by headache and nausea ([1]; none of these events serious): less than 1%
- suppression of pituitary and ovarian hormones [2]: dose dependent suppression
- quality of life assessments ([3]; Phase 2 endometriosis studies): improved quality of life assessments
- symptoms of dyspareunia ([3]; Phase 2 endometriosis studies): reduced
- effect on DYS and NMPP compared with DMPA-SC ([3]; daily dose of 150 mg): comparable effect
- effect on DYS and NMPP compared with leuprorelin ([3]; daily doses of 150 mg and 250 mg): less effect
- endometriosis-associated pain ([3]; daily doses of 100 to 250 mg, 12 or 24 weeks): clinically meaningful reductions
- overall usage of analgesics for pain control ([3]; elagolix treatment arms): decreased
- days of bleeding per month ([4]; 250 mg QD compared with 150 mg QD): fewer days of bleeding
- bleeding intensity and intervals between bleeding episodes ([4]; majority of elagolix recipients, individual menstrual charts from eDiary): reduced bleeding intensity and often had extended intervals between bleeding episodes
- days of bleeding per month ([4]; overall, compared with placebo): fewer days of bleeding per month
